This note sets out measurements from BindingDB's records for doi:10.1021/acsmedchemlett.9b00354 (Bristol-Myers Squibb, 2019).

This test can be described thus: Effect on ZAP70 phosphorylation in human Jurkat cells pre-incubated for 30 mins followed by anti-CD3/CD28 stimulation measured after 10 mins.
As a reminder, the EC50 is the concentration at which the effect is half-maximal. A low value points to greater potency. As for `COc1ccc2c(C(=O)Nc3ccc(NC(=O)c4nn(C5CCN(C(=O)CC(C)(C)C#N)CC5)c5ccc(F)cc45)cc3Cl)cnn2c1`, the midpoint of the response, the EC50, lay at 41 nM. Take `Cc1cc(NC(=O)c2nn(C3CCN(C(=O)CC(C)(C)C#N)CC3)c3ccccc23)ccc1NC(=O)c1cnn2ccccc12`: the midpoint of the response, the EC50, lay at 88 nM. For `Cc1cc(NC(=O)c2nn(C3CCN(C(=O)NC(C)(C)C)CC3)c3ccccc23)ccc1NC(=O)c1cnn2ccccc12` the value was 42 nM; for `CC(C)(C)NC(=O)N1CC(Cn2nc(C(=O)Nc3ccc(-c4ccc(=O)[nH]n4)c(Cl)c3)c3ccccc32)C1`, 7900 nM. As for `Cc1cc(=O)[nH]nc1-c1ccc(NC(=O)c2nn(C3CCN(C(=O)NC(C)(C)C)CC3)c3ccccc23)cc1Cl`, the EC50 worked out at 4050 nM. The figure for `CCc1cc(NC(=O)c2nn(C3CCN(C(=O)NC(C)(C)C)CC3)c3ccccc23)ccc1-c1n[nH]c(=O)cc1C` is 2000 nM; for `CC(C)(C)NC(=O)N1CCC(n2nc(C(=O)Nc3ccc(NC(=O)c4cnn5ccccc45)cc3)c3ccccc32)CC1` it is 1400 nM; for `CCc1cc(NC(=O)c2nn(C3CCN(C(=O)NC(C)(C)C)CC3)c3ccccc23)ccc1-c1n[nH]c(=O)c(C)c1C` it is 420 nM. For `CC(C)(C)NC(=O)N1CCC(n2nc(C(=O)Nc3ccc(-c4ccc(=O)[nH]n4)c(Cl)c3)c3ccccc32)CC1` the value was 5700 nM; for `CCc1cc(NC(=O)c2nn(C3CCN(C(=O)NC(C)(C)C)CC3)c3ccccc23)ccc1-c1cc(C)c(=O)[nH]n1`, 2700 nM. In the case of `COc1ccc2c(C(=O)Nc3ccc(NC(=O)c4nn(C)c5ccccc45)cc3C)cnn2c1`, the concentration giving a half-maximal response (EC50) was > 20000 nM. `COc1ccc2c(C(=O)Nc3ccc(NC(=O)c4nn(C5CCN(C(=O)NC(C)(C)C)CC5)c5ccc(F)cc45)cc3Cl)cnn2c1` had an EC50 of 56 nM.

For the compound `CC(C)(C)NC(=O)N1CCC(n2nc(C(=O)Nc3ccc(NC(=O)c4cnn5ccccc45)c(Cl)c3)c3ccccc32)CC1`, a half-maximal response (EC50) required 49 nM.

For `COc1ccc2c(C(=O)Nc3ccc(NC(=O)c4nn(C5CCN(C(=O)NC(C)(C)C)CC5)c5ccccc45)cc3C)cnn2c1`, the EC50 amounted to 28 nM.
